# How the values were obtained:
# [1] = target: T1, 5-hydroxytryptamine receptor 1A (Homo sapiens, UniProt P08908); experiment: Binding affinity to 5-HT1A receptor (unknown origin)
# T1 sequence (P08908 whole entry): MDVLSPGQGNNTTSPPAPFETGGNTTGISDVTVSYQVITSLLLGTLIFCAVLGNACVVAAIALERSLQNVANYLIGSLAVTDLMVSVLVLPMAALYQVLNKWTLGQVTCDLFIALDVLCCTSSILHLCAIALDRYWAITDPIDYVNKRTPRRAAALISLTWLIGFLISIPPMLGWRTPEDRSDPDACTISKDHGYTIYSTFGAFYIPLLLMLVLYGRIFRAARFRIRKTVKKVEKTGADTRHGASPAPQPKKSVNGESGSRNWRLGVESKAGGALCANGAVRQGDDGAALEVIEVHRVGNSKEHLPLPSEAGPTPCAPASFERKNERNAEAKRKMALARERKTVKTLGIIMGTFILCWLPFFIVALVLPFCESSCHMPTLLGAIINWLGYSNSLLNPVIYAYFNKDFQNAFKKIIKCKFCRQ
# [2] = target: T2, 5-hydroxytryptamine receptor 2A (Rattus norvegicus, UniProt P14842); experiment: Displacement of [3H]ketanserin from 5HT2A in Sprague-Dawley rat cortex membranes measured after 15 mins; format: cell membranes
# [3] = target: 5-hydroxytryptamine receptor 6 (Homo sapiens, UniProt P50406); experiment: Displacement of [3H]LSD from human 5HT6 receptor expressed in HEK293 cells; format: cell-based
# [4] = target: Sodium-dependent dopamine transporter (Rattus norvegicus, UniProt P23977); experiment: Inhibition of DAT in Sprague-Dawley rat synaptosomes assessed as reduction in [3H]dopamine uptake by liquid scintillation counting method; format: subcellular
# [5] = target: Trace amine-associated receptor 1 (Rattus norvegicus, UniProt Q923Y9); experiment: Agonist activity at rat N-terminal FLAG-tagged TAAR1 expressed in HEK293 cells assessed as [3H]cAMP accumulation measured after 1 hr; format: functional, cell-based
# [6] = target: T2, 5-hydroxytryptamine receptor 2A; experiment: Displacement of [125I]DOI from rat cortex 5HT2A after 1 hr by beta scintillation counting method
# [7] = tested on: Rattus norvegicus; experiment: In vivo agonist activity at 5HT2A in ip dosed DOM-trained Sprague-Dawley rat assessed as increase in discriminative stimulus pretreated before testing; format: functional
# [8] = tested on: Rhesus monkey; experiment: In vivo agonist activity at 5HT2A in DOM-trained rhesus monkey assessed as increase in discriminative stimulus administered subcutaneously pretreated before testing; format: functional; settings: Macaca mulatta, sc
# [9] = species: Rattus norvegicus; experiment: Induction of stimulus generalization in rat trained to discriminate S(+)methamphetamine assessed as appropriate responding level to training drug by two lever method; format: functional
# [10] = species: Rattus norvegicus; experiment: Induction of stimulus generalization in Sprague-Dawley rat trained to discriminate S(-)MCAT assessed as appropriate responding level to training drug by two lever method; format: functional
# [11] = species: Rattus norvegicus; experiment: Induction of stimulus generalization in Sprague-Dawley rat trained to discriminate TDIQ assessed as appropriate responding level to training drug by two lever method; format: functional
# [12] = species: Rattus norvegicus; experiment: Induction of stimulus generalization in Sprague-Dawley rat trained to discriminate S(+)AMPH assessed as appropriate responding level to training drug by two lever method; format: functional
# [13] = target: T3, Alpha-2B adrenergic receptor (Homo sapiens, UniProt P18089); experiment: Binding affinity to alpha-2B receptor (unknown origin)
# T3 sequence (P18089 whole entry): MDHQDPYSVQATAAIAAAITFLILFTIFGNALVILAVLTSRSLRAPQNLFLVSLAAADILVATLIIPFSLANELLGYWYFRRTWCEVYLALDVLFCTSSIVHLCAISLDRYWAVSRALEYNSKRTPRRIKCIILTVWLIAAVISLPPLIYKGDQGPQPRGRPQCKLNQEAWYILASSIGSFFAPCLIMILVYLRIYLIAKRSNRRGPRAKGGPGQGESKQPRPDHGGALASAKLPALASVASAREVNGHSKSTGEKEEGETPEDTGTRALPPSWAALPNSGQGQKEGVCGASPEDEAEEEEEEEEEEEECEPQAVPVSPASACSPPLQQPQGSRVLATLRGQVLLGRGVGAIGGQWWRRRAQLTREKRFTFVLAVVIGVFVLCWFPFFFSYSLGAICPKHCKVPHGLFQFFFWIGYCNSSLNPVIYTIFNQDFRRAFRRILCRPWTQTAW
# [14] = target: T4, Alpha-2A adrenergic receptor (Homo sapiens, UniProt P08913); experiment: Binding affinity to alpha-2A receptor (unknown origin)
# T4 sequence (P08913 whole entry): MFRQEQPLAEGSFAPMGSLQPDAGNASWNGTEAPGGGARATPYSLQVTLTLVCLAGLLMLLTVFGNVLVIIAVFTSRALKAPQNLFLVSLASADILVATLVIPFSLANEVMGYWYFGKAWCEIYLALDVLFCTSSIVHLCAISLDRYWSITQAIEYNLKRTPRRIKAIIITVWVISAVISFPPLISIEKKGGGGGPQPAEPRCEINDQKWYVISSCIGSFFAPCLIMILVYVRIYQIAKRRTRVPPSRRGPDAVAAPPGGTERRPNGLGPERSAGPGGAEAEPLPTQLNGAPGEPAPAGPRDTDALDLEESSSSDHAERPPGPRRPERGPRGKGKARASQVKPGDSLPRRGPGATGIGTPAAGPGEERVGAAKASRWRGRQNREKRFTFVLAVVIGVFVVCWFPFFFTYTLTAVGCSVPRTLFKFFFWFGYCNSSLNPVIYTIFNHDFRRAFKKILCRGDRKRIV
# [15] = target: T5, Alpha-2C adrenergic receptor (Homo sapiens, UniProt P18825); experiment: Binding affinity to alpha-2C receptor (unknown origin)
# T5 sequence (P18825 whole entry): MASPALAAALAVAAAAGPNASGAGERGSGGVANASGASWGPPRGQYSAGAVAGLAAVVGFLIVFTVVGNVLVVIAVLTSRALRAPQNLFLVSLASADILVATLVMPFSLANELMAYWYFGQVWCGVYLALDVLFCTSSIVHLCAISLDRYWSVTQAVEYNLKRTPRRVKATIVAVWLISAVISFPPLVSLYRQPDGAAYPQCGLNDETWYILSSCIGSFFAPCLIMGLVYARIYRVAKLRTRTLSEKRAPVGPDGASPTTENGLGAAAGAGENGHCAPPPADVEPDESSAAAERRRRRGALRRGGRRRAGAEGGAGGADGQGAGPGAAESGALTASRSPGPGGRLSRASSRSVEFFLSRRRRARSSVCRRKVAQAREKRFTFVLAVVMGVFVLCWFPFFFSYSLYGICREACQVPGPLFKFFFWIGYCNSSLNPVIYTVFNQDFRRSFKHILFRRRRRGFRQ
# [16] = tested on: Mus musculus; experiment: Anxiolytic-like activity in iv dosed ICR mouse assessed as increase in marbles left uncovered measured after 30 mins by marble burying assay; format: functional; settings: 0.5 h
# 5-hydroxytryptamine receptor 6, sequence (P50406 whole entry): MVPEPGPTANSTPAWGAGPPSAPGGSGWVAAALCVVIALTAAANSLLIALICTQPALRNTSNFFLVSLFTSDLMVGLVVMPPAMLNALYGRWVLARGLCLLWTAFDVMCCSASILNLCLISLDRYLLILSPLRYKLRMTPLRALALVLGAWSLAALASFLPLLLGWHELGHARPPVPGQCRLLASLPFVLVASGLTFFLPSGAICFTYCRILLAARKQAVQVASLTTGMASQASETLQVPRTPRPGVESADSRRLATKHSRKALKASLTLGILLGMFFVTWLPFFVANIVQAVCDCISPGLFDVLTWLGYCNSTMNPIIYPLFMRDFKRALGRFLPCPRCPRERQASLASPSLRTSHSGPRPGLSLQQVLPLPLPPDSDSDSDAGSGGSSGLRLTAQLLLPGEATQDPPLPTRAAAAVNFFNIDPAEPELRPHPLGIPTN
# T2 sequence (P14842 whole entry): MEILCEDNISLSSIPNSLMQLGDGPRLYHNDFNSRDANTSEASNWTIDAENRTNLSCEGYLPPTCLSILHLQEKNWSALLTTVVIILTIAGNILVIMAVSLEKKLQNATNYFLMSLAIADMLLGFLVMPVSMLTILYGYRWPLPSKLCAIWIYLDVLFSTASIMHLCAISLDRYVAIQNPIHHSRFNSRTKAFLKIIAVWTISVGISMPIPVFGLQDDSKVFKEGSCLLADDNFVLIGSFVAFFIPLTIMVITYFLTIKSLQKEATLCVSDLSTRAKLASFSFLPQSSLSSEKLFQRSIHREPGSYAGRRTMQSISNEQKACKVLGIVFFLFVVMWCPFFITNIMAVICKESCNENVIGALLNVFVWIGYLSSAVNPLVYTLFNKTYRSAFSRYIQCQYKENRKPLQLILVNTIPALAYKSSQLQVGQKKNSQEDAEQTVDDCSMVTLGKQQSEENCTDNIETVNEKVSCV
# Trace amine-associated receptor 1, sequence (Q923Y9 whole entry): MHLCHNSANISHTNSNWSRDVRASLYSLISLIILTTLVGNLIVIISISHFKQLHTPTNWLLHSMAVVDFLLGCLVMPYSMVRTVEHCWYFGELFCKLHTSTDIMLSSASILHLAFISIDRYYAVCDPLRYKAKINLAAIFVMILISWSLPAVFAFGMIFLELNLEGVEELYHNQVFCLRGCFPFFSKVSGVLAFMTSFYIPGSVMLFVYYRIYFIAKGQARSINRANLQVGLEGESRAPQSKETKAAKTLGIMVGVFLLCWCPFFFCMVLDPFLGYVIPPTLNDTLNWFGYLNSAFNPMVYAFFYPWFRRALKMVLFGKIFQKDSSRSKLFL
# Sodium-dependent dopamine transporter, sequence (P23977 whole entry): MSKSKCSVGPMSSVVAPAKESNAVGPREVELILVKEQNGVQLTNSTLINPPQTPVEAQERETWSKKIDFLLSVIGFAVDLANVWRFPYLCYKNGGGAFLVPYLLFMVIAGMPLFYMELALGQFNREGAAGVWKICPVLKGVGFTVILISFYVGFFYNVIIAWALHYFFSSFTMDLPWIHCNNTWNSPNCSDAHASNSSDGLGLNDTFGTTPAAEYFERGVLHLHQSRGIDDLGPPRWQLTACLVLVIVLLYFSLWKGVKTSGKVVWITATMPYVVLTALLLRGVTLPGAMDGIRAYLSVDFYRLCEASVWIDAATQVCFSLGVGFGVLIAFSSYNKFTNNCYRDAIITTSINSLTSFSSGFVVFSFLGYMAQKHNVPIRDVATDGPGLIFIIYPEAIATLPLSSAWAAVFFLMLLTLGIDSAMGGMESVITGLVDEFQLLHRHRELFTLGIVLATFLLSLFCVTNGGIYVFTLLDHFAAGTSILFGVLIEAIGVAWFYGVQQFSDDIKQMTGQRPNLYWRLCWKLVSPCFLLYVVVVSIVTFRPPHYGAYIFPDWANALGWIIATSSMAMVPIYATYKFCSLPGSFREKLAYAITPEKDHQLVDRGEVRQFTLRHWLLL
compound,measurement,setting,value
CCCNCCc1ccccc1O,Ki,[1],> 1 µM
COc1cc(CC(C)N(C)C)c(OC)cc1Br (stereo not drawn),Ki,[2],0.38 µM
NCCc1ccc(S(=O)(=O)n2ccc3ccccc32)cc1,Ki,[3],0.0025 µM
CCCN(CCC)CCc1ccccc1O,Ki,[1],0.4 µM
CCC[C@@H](C(=O)c1ccc2c(c1)OCO2)N1CCCC1,IC50,[4],0.0021 µM
NCCc1ccccc1 [PHENETHYLAMINE],EC50,[5],0.24 µM
NC1CCc2c(cccc2NS(=O)(=O)c2ccccc2)C1 (stereo not drawn),Ki,[3],0.049 µM
C[C@H](N)Cn1ncc2ccc3c(c21)CCCO3,Ki,[6],0.00013 µM
same,ED50,[7],0.05 mg/kg
same,ED50,[8],0.04 mg/kg
COC(=O)[C@H]1[C@@H](OC(=O)c2ccccc2)C[C@@H]2CC[C@H]1N2C [COCAINE],ED50,[9],3.68 to 6.68 mg/kg
same,ED50,[10],1.47 mg/kg
same,ED50,[11],1.5 mg/kg
same,ED50,[12],5.63 mg/kg
c1c2c(cc3c1OCO3)CNCC2,Ki,[13],< 0.1 µM
same,Ki,[14],< 0.1 µM
same,Ki,[15],< 0.1 µM
same,ED50,[16],0.2 mg/kg

# Reference: ChEMBL document CHEMBL4007451, “The 2014 Philip S. Portoghese Medicinal Chemistry Lectureship: The "Phenylalkylaminome" with a Focus on Selected Drugs of Abuse” (J Med Chem, 2017)
